The record followed here is PubChem BioAssay (NCI).

Molecules are shown by their SMILES. Where “and” joins values, the source holds several entries; their conditions need not be identical. Equal values may be shown once.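 Protocol summary: plate cells (96-well), add compound at 5 concentrations, incubate 48 h, interpolate endpoints linearly. GI50 is the concentration that inhibits growth by half. TGI is the concentration that stops growth completely.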

Common to all, as to test: NCI anticancer screen, dose series, 48 h
Assay [1] concerns OVCAR-5 ovarian.
Assay [2] deals with KM12 colon.
The subject of assay [3] is CCRF-CEM leukemia.
For assay [4], the system named is SF-295 CNS.
The test system of assay [5] is SNB-19 CNS.
In assay [6] the test system is DU-145 prostate.
Assay [7] relates to MDA-MB-435.
The subject of assay [8] is SN12C renal.
In assay [9] the test system is U251 CNS.
In assay [10] the test system is PC-3 prostate.

As to `O=C(C[C@@]1(O)C(=O)Nc2c(Cl)ccc(Cl)c21)c1ccc(C2CC2)cc1`, the GI50 was 1.17 µM in [1]; 0.318 µM in assay [2]; 0.341 µM in assay [3]; 0.344 µM in assay [4]; 0.69 µM in assay [5]; 0.492 µM in assay [6]. The GI50 in assay [7] is 0.033 µM; in [8] it was 0.88 µM; in [9] it was 0.436 µM; in assay [10], 0.434 µM. In addition, the TGI was 17.5 µM in [1]; 14.2 µM in assay [2]; > 100 µM in [3]; 13.3 µM in assay [4]; 18.1 µM in assay [5]; 17.1 µM in assay [6]. In addition, the TGI in assay [7] amounted to 0.232 µM; in [8], 17.7 µM; in assay [9] it was 16.2 µM; in assay [10], 20 µM.

With `COc1cc(-c2cc(-c3nc4cc(Cl)c(Cl)cc4[nH]3)[nH]n2)cc(OC)c1OC`, the GI50 was 7.08 µM in assay [1]; 3.56 µM in assay [2]; 2.35 µM in [3]; 3.04 µM in assay [4]; 5.47 µM in assay [5]; 4.16 µM in assay [6]. Moreover, the GI50 in [7] is 3.78 µM; in [8], 3.05 µM; in [9] it was 2.96 µM; in [10] it was 2.2 µM. Besides, the TGI in [1] worked out at 21.6 µM; in assay [2] it was 13.9 µM; in [3] it was 6.75 µM; in assay [4], 11.5 µM; in [5], 22.2 µM; in assay [6] it was 15.2 µM. In addition, the TGI was determined as 14.6 µM in assay [7], 13.4 µM in assay [8], 11 µM in [9] and 7.89 µM in [10].

On to `Cc1cc(Nc2cc(CN3CCOCC3)c3nc(C)c(Cc4ccc(Cl)cc4F)n3n2)n[nH]1`, for which the GI50 in [1] is 1.8 µM; in assay [2], 0.0481 µM; in [3], 0.59 µM; in assay [4], 1.79 µM; in [5], 6.31 µM; in [6] it was 1.24 µM. Further, the GI50 in assay [7] is 0.694 µM; in assay [8], 1.14 µM; in assay [9], 1.52 µM; in [10], 2.07 µM. The TGI came to 7.03 µM in assay [1]; 5.6 µM in [2]; 3.94 µM in assay [3]; 5.73 µM in assay [4]; 19 µM in assay [5]; 11.5 µM in assay [6]. Also, the TGI in assay [7] amounted to 19.6 µM; in [8], 15.9 µM; in [9], 5.24 µM; in [10] it was 18.3 µM.

Turning to `O=C1c2ccc3c4c(ccc(c24)C(=O)N1CCCNCc1ccccc1)C(=O)N(CCCNCc1ccccc1)C3=O`, the GI50 was 0.233 µM in assay [1]; 0.108 µM in assay [2]; 0.17 µM in assay [3]; 0.173 µM in assay [4]; 0.13 µM in assay [5]; 0.156 µM in assay [6]. Further, the GI50 in assay [7] is 0.18 µM; in assay [8], 0.145 µM; in assay [9] it was 0.112 µM; in assay [10], 0.203 µM. Also, the TGI stood at 0.648 µM in assay [1]; 0.288 µM in assay [2]; 4.73 µM in assay [3]; 0.432 µM in assay [4]; 0.314 µM in assay [5]; 0.297 µM in [6]. The TGI in assay [7] came out at 0.356 µM; in [8], 0.308 µM; in assay [9], 0.301 µM; in assay [10], 0.622 µM.

Turning to `COc1cc2cn3c4ccc(O)cc4nc(N)c3c2cc1OC`, the GI50 was 2.6 µM in assay [1]; 0.885 µM in assay [2]; 0.181 µM in assay [3]; 0.265 µM in assay [4]; 0.211 µM in assay [5]; 0.253 µM in assay [6]. Also, the GI50 in [7] is 0.0195 µM; in [8], 0.295 µM; in assay [9], 0.11 µM; in assay [10] it was 0.474 µM. In addition, the TGI in assay [1] is 14.1 µM; in [2] it was 4.48 µM; in [3] it was 7.58 µM; in [4] it was 11.5 µM; in assay [5] it was 16.7 µM; in assay [6], 5.75 µM. Further, the TGI in [7] came to 12.8 µM; in assay [8], 13 µM; in [9], 8.32 µM; in assay [10] it was 14.7 µM.

On to `COc1ccc2[nH]c3c(C)c4cc[n+](C)cc4c(C)c3c2c1`, for which the GI50 in assay [1] is 2.32 µM and 3.07 µM; in [2], 0.34 µM and 0.817 µM; in assay [3], 0.706 µM and 1.92 µM; in [4], 0.107 µM; in assay [5], 0.103 µM and 0.322 µM; in assay [6] it was 2.1 µM and 0.44 µM and 0.691 µM. Further, the GI50 was 13.4 µM and 5.86 µM in [7]; 0.0483 µM and 0.0691 µM in assay [8]; 0.0689 µM and 0.0524 µM in assay [9]. Also, the TGI was 1.04 µM [middle of 4 runs] in [5]; 37.7 µM and 5.13 µM in [6]; > 88.3 µM in assay [7]; 797 nM [middle of 4 runs] in assay [8]; 99.3 µM and > 250 µM in assay [10].

With `COc1cc(-c2nc3ccccc3[nH]2)ccc1OCC(=O)N=Nc1c(O)[nH]c2ccc(Cl)cc12`, the GI50 is 1.97 µM in assay [1]; 1.41 µM in [2]; 0.5 µM in assay [3]; 1.81 µM in assay [4]; 1.63 µM in assay [5]; 1.68 µM in assay [6]. The GI50 in [7] was 1.43 µM; in [8] it was 1.61 µM; in [9] it was 0.468 µM; in assay [10] it was 1.48 µM. In addition, the TGI worked out at 4.82 µM in assay [1]; 3.24 µM in [2]; 3.56 µM in assay [3]; 3.35 µM in [4]; 3.04 µM in [5]; 3.43 µM in assay [6]. For the same compound, the TGI in assay [7] stood at 2.76 µM; in [8], 3.06 µM; in assay [9] it was 1.88 µM; in assay [10], 3.06 µM.
